# pIC50: −log10 of the molar value. Counter-ions that a name gives are not always drawn.
# How the values were obtained:
# [1] = test system: LPA 18:2 level in rat plasma; test: In vitro LPA assay, reduction of LPA 18:2 level in rat plasma (LC-MS/MS); assay type: biochemical; conditions: 2 hr at 37° C., LPA 18:2 reduction
# Protocol: (§1) Autotaxin (ATX) plays an important role in lysophosphatidic acid (LPA) signaling. An in vitro LPA assay was conducted to determine IC50 values of the test compounds on reduction of LPA 18:2 level in rat or mouse plasma. This example describes the assay data (IC50 value ranges) of exemplary compounds from LPA assays using mouse and rat plasma. Compound GPLG-1690 was assayed as a reference compound.
# (§2) The 10 mM DMSO stock solutions of test compounds and 4-fold serial dilutions of the test compounds were prepared at various concentrations. The diluted solutions of the compounds were diluted with 1×PBS (pH 7.5) buffer. 38 μL of rat or mouse plasma samples were mixed with 2 μL of the diluted solutions of the compounds or 2% DMSO solutions in 96-well plate (final 0.1% DMSO). After incubating for 2 hr at 37° C., 120 μL MeOH containing IS (250 ng/mL of LPA 17:0) was added to each well. Mixture was vortexed for 1 min, and then centrifuged for 30 min (4000 rpm, 4° C.). 100 μL supernatant was transferred to a 96-well plate containing 100 μL pure water and the plate was shaken for 10 min. 5 μL supernatant was injected into LC-MS/MS system. No calibration curve will be prepared for LPA 18:2 and all quantifications were performed based on peak area ratios (LPA 18:2/LPA 17:0). For each concentration of compound LPA data were expressed as percentage of reduction (% reduction) using the formula. 100−[((LPA ratio-LPA ratio in control sample after 0 hr incubation)/(LPA ratio in control sample after 2 hr incubation—LPA ratio in control sample after 0 hr incubation))*100]. Data
# [2] = test system: LPA 18:2 level in mouse plasma; test: In vitro LPA assay, reduction of LPA 18:2 level in mouse plasma (LC-MS/MS); assay type: biochemical; conditions: 2 hr at 37° C., LPA 18:2 reduction
# Protocol: as §1, §2
# [3] = Mouse PK study (IV and PO); assay type: in vivo; conditions: male, C57BL/6, mouse, plasma, male C57BL/6 mice; for AUC(0-inf): IV 2 mg/kg and PO 10 mg/kg study; for bioavailability / Cmax: po, 10 mg/kg; for bioavailability: IV 2 mg/kg and PO 10 mg/kg, read-out: F % (bioavailability); for Cmax: PO group 10 mg/kg
# Protocol: This example describes the pharmacokinetic (PK) data obtained for various compounds of the present disclosure, from studies using mice. The following PK parameters were calculated: • Bioavailability (F %) were calculated using the linear/log trapezoidal rule • Peak plasma concentrations (Cmax (ng/mL)) were taken directly from the plasma concentration vs. time profiles for the PO group • Area under the curve e.g., the area under the concentration curve from time 0 to infinity (AUC0-inf(ng*h/mL)). Experimental Procedures
# After intravenous (IV) and oral (PO) administration at 2 mg/kg and 10 mg/kg to male C57BL/6 mice, respectively, the blood samples were collected at the designed sampling time points. All blood samples were transferred into pre-chilled commercial polyethylene microcentrifuge tubes containing K2-EDTA as an anticoagulant. Samples were processed for plasma by centrifugation. Plasma samples was transferred into polypropylene tubes pre-chilled on dry ice and then quickly frozen over dry ice and kept at −70±10° C. until LC-MS/MS analysis. Mice plasma samples were analyzed using qualified bioanalytical methods based on protein precipitation followed by LC-MS/MS analysis. Individual plasma concentration data of each compound was subjected to noncompartmental pharmacokinetic analysis using Phoenix WinNonlin™. Nominal doses were used for pharmacokinetic parameters calculation.
# hATX/ENPP2 = hATX/ENPP2 (Homo sapiens, UniProt Q13822); test: hATX/ENPP2 biochemical assay using 16:0-LPC as substrate (Amplex Red/choline oxidase/HRP fluorescence); conditions: hENPP2 2.5 nM, LPC (16:0) substrate
# Procedure, shortened: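 Enzyme preincubated with compounds 15 min at room temperature in 50 mM Tris-HCl pH 8.0, 140 mM NaCl, 5 mM CaCl2, 0.01% Triton X-100. Reaction started with 80 μM LPC (16:0) stock plus Amplex Red/choline oxidase/HRP mix; fluorescence (ex 530/em 590 nm) read kinetically. IC50 from slope between 60 and 70 min.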
smiles,measurement,setting,value
"CCc1nc2ccc(-c3ccc(N4CCN(C(=O)C5CN(C)C5)CC4)nc3)cn2c1N(C)c1nc(-c2ccc(F)cc2)c(C#N)s1 [Compound 86 hydrochloride, 2-((2-ethyl-6-(6-(4-(1-methylazetidine-3-carbonyl)piperazin-1-yl)pyridin-3-yl)imidazo[1,2-a]pyridin-3-yl)(methyl)amino)-4-(4-fluorophenyl)thiazole-5-carbonitrile hydrochloride]",pIC50,[1],6.10 to 6.70
same,pIC50,[2],< 6.10
"CCc1nc2ccc(-c3cnc(N4CCN(CC(=O)N5CC[C@@H](O)C5)CC4)nc3)cn2c1N(C)c1nc(-c2ccc(F)cc2)c(C#N)s1 [45 (hydrochloride salt), (R)-2-((2-ethyl-6-(2-(4-(2-(3-hydroxypyrrolidin-1-yl)-2-oxoethyl)piperazin-1-yl)pyrimidin-5-yl)imidazo[1,2-a]pyridin-3-yl)(methyl)amino)-4-(4-fluorophenyl)thiazole-5-carbonitrile]",pIC50,[1],≥ 6.70
same,pIC50,[2],6.10 to 6.70
"CCc1nc2ccc(-c3cnc(N4CCN(C(=O)C5(O)CC5)CC4)nc3)cn2c1N(C)c1nc(-c2ccc(F)cc2)c(C#N)s1 [Compound 2, 2-((2-ethyl-6-(2-(4-(1-hydroxycyclopropane-1-carbonyl)piperazin-1-yl)pyrimidin-5-yl)imidazo[1,2-a]pyridin-3-yl)(methyl)amino)-4-(4-fluorophenyl)thiazole-5-carbonitrile]",AUC(0-inf),[3],35.1 µg·h/mL
same,bioavailability,[3],61%
same,Cmax,[3],4.07 µg/mL
same,pIC50,hATX/ENPP2,≥ 7.70
"CCc1nc2c(C)cc(N3CCN(CC(=O)N4CC(O)C4)CC3)cn2c1N(C)c1nc(-c2ccc(F)cc2)c(C#N)s1 [GPLG-1690, Ziritaxestat, reference compound]",pIC50,[1],< 6.10
same,pIC50,[2],< 6.10
"CCc1nc2ccc(-c3cnc(N4CCN(C(=O)C5(C#N)CC5)CC4)nc3)cn2c1N(C)c1nc(-c2ccc(F)cc2)c(C#N)s1 [Compound 1, 2-((6-(2-(4-(1-cyanocyclopropane-1-carbonyl)piperazin-1-yl)pyrimidin-5-yl)-2-ethylimidazo[1,2-a]pyridin-3-yl)(methyl)amino)-4-(4-fluorophenyl) thiazole-5-carbonitrile]",AUC(0-inf),[3],27.2 µg·h/mL
same,bioavailability,[3],56.5%
same,Cmax,[3],3.03 µg/mL
same,pIC50,hATX/ENPP2,≥ 7.70
"CCc1nc2ccc(-c3cnc(C(=O)N4CCCC4)nc3)cn2c1N(C)c1nc(-c2ccc(F)cc2)c(C#N)s1 [Compound 47, 2-((2-ethyl-6-(2-(pyrrolidine-1-carbonyl)pyrimidin-5-yl)imidazo[1,2-a]pyridin-3-yl)(methyl)amino)-4-(4-fluorophenyl)thiazole-5-carbonitrile]",AUC(0-inf),[3],42.3 µg·h/mL
same,bioavailability,[3],62.3%
same,Cmax,[3],4.76 µg/mL
same,pIC50,hATX/ENPP2,6.70 to 7.70
"CCc1nc2ccc(-c3ccc(N4CCC(C(=O)N5CCC5)CC4)nc3)cn2c1N(C)c1nc(-c2ccc(F)cc2)c(C#N)s1 [Compound 122, 2-((6-(6-(4-(azetidine-1-carbonyl)piperidin-1-yl)pyridin-3-yl)-2-ethylimidazo[1,2-a]pyridin-3-yl)(methyl)amino)-4-(4-fluorophenyl)thiazole-5-carbonitrile]",AUC(0-inf),[3],47.7 µg·h/mL
same,bioavailability,[3],57.8%
same,Cmax,[3],7 µg/mL
same,pIC50,hATX/ENPP2,≥ 7.70
"CCc1nc2ccc(-c3cnc(N4CC(NC5CCC5)C4)nc3)cn2c1N(C)c1nc(-c2ccc(F)cc2)c(C#N)s1 [Compound 106, 2-((6-(2-(3-(cyclobutylamino)azetidin-1-yl)pyrimidin-5-yl)-2-ethylimidazo[1,2-a]pyridin-3-yl)(methyl)amino)-4-(4-fluorophenyl)thiazole-5-carbonitrile]",pIC50,hATX/ENPP2,6.70 to 7.70
"CCc1nc2ccc(-c3cnc(C(=O)NC4CNC4)nc3)cn2c1N(C)c1nc(-c2ccc(F)cc2)c(C#N)s1 [Compound 50, N-(azetidin-3-yl)-5-(3-((5-cyano-4-(4-fluorophenyl)thiazol-2-yl) (methyl)amino)-2-ethylimidazo[1,2-a]pyridin-6-yl)pyrimidine-2-carboxamide]",pIC50,hATX/ENPP2,6.70 to 7.70
"CCc1nc2ccc(-c3cnc(CC(=O)N4CC[C@H](O)C4)nc3)cn2c1N(C)c1nc(-c2ccc(F)cc2)c(C#N)s1 [Compound 55, (S)-2-((2-ethyl-6-(2-(2-(3-hydroxypyrrolidin-1-yl)-2-oxoethyl)pyrimidin-5-yl)imidazo[1,2-a]pyridin-3-yl)(methyl)amino)-4-(4-fluorophenyl)thiazole-5-carbonitrile]",pIC50,hATX/ENPP2,6.70 to 7.70
"CCc1nc2ccc(-c3cnc(NC4CCNCC4)nc3)cn2c1N(C)c1nc(-c2ccc(F)cc2)c(C#N)s1 [Compound 22, 2-((2-ethyl-6-(2-(piperidin-4-ylamino)pyrimidin-5-yl)imidazo[1,2-a]pyridin-3-yl)(methyl)amino)-4-(4-fluorophenyl)thiazole-5-carbonitrile]",pIC50,hATX/ENPP2,< 6.70
"CCc1nc2ccc(-c3cnc(NC4CNC4)nc3)cn2c1N(C)c1nc(-c2ccc(F)cc2)c(C#N)s1 [Compound 34, 2-((6-(2-(azetidin-3-ylamino)pyrimidin-5-yl)-2-ethylimidazo[1,2-a]pyridin-3-yl)(methyl)amino)-4-(4-fluorophenyl)thiazole-5-carbonitrile]",pIC50,hATX/ENPP2,< 6.70
"CCc1nc2ccc(-c3cnc(N4CC(N)C4)nc3)cn2c1N(C)c1nc(-c2ccc(F)cc2)c(C#N)s1 [Compound 3, 2-((6-(2-(3-aminoazetidin-1-yl)pyrimidin-5-yl)-2-ethylimidazo[1,2-a]pyridin-3-yl)(methyl)amino)-4-(4-fluorophenyl)thiazole-5-carbonitrile]",pIC50,hATX/ENPP2,6.70 to 7.70
"CCc1nc2ccc(-c3cnc(NC4CN(C(=O)C5(O)CC5)C4)nc3)cn2c1N(C)c1nc(-c2ccc(F)cc2)c(C#N)s1 [Compound 35, 2-((2-ethyl-6-(2-((1-(1-hydroxycyclopropane-1-carbonyl)azetidin-3-yl)amino)pyrimidin-5-yl)imidazo[1,2-a]pyridin-3-yl) (methyl)amino)-4-(4-fluorophenyl)thiazole-5-carbonitrile]",pIC50,hATX/ENPP2,6.70 to 7.70
"CCc1nc2ccc(-c3cnc(N4CCN(CC(=O)N5CC[C@H](O)C5)CC4)nc3)cn2c1N(C)c1nc(-c2ccc(F)cc2)c(C#N)s1 [Compound 46, (S)-2-((2-ethyl-6-(2-(4-(2-(3-hydroxypyrrolidin-1-yl)-2-oxoethyl)piperazin-1-yl)pyrimidin-5-yl)imidazo[1,2-a]pyridin-3-yl)(methyl)amino)-4-(4-fluorophenyl)thiazole-5-carbonitrile]",pIC50,hATX/ENPP2,≥ 7.70
"CCc1nc2ccc(-c3cnc(N4CCC(NC(=O)C5(C#N)CC5)CC4)nc3)cn2c1N(C)c1nc(-c2ccc(F)cc2)c(C#N)s1 [Compound 20, 1-cyano-N-(1-(5-(3-((5-cyano-4-(4-fluorophenyl)thiazol-2-yl)(methyl)amino)-2-ethylimidazo[1,2-a]pyridin-6-yl)pyrimidin-2-yl)piperidin-4-yl) cyclopropane-1-carboxamide]",pIC50,hATX/ENPP2,6.70 to 7.70
"CCc1nc2ccc(-c3ccc(N4CCC(NC5(CO)CC5)CC4)nc3)cn2c1N(C)c1nc(-c2ccc(F)cc2)c(C#N)s1 [Compound 88, 2-((2-ethyl-6-(6-(4-((1-(hydroxymethyl)cyclopropyl)amino)piperidin-1-yl)pyridin-3-yl)imidazo[1,2-a]pyridin-3-yl)(methyl)amino)-4-(4-fluorophenyl)thiazole-5-carbonitrile]",pIC50,hATX/ENPP2,≥ 7.70
"CCc1nc2ccc(-c3cnc(CC(=O)N4CCNCC4)nc3)cn2c1N(C)c1nc(-c2ccc(F)cc2)c(C#N)s1 [Compound 58, 2-((2-ethyl-6-(2-(2-oxo-2-(piperazin-1-yl)ethyl)pyrimidin-5-yl)imidazo[1,2-a]pyridin-3-yl)(methyl)amino)-4-(4-fluorophenyl)thiazole-5-carbonitrile]",pIC50,hATX/ENPP2,6.70 to 7.70

# Reference: patent publication US11970493B2, “Autotaxin inhibitor compounds” (ILDONG PHARMACEUTICAL CO., LTD., priority 2020, dated 2024)
